In patent US11477982B2, “2-amino-5-oxyalkyl-pyrimidine derivatives and their use for controlling undesired plant growth” (Bayer CropScience Aktiengesellschaft, priority 2017, dated 2022):

Key:
Assay type in all cases: in vivo
[1] = system: ABUTH: Abutilon theophrasti; test: Pre-emergence herbicidal effect; details: dosage 320 g/ha
Method in brief: (§1)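 Pre-emergence soil-surface spray. Formulation WP/EC, aqueous, +0.5% additive, 600 l/ha. Greenhouse ~3 wk; visual % score vs untreated (0% = control, 100% = dead).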

[2] = system: ALOMY: Alopecurus myosuroides; test: Pre-emergence herbicidal effect; details: pre-emergence; dosage 320 g/ha
Method in brief: as §1

[3] = system: AMARE: Amaranthus retroflexus; test: Pre-emergence herbicidal effect; details: pre-emergence; dosage 320 g/ha
Method in brief: as §1

AVEFA: Avena fatua = test: Pre-emergence herbicidal effect; details: dosage 320 g/ha
Method in brief: as §1

[4] = system: ECHCG: Echinochloa crus-galli; test: Pre-emergence herbicidal effect; details: pre-emergence; dosage 320 g/ha
Method in brief: as §1

HORMU: Hordeum murinum = test: Pre-emergence herbicidal effect; details: pre-emergence; dosage 320 g/ha
Method in brief: as §1

LOLRI: Lolium rigidum = test: Pre-emergence herbicidal effect; details: dosage 320 g/ha
Method in brief: as §1

[5] = system: MATIN: Matricaria inodora; test: Pre-emergence herbicidal effect; details: pre-emergence; dosage 320 g/ha
Method in brief: as §1

PHBPU: Ipomoea purpurea = test: Pre-emergence herbicidal effect; details: dosage 320 g/ha
Method in brief: as §1

[6] = system: POLCO: Polygonum convolvulus; test: Pre-emergence herbicidal effect; details: dosage 320 g/ha
Method in brief: as §1

SETVI: Setaria viridis [7] = test: Pre-emergence herbicidal effect; details: pre-emergence; dosage 320 g/ha
Method in brief: as §1

STEME: Stellaria media [8] = test: Pre-emergence herbicidal effect; details: pre-emergence; dosage 320 g/ha
Method in brief: as §1

VERPE: Veronica persica [9] = test: Pre-emergence herbicidal effect; details: dosage 320 g/ha
Method in brief: as §1

VIOTR: Viola tricolor [10] = test: Pre-emergence herbicidal effect; details: dosage 320 g/ha
Method in brief: as §1

[11] = system: ABUTH: Abutilon theophrasti; test: Post-emergence herbicidal effect; details: dosage 320 g/ha
Method in brief: (§2)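 Weeds grown from seed in sandy loam in the greenhouse were sprayed at the one-leaf stage, 2 to 3 weeks after sowing. Compounds formulated as WP or EC were applied as aqueous suspension or emulsion with 0.5% additive at 600 l/ha. Activity was scored visually after about 3 weeks versus untreated controls (100% = dead, 0% = as control).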

[12] = system: AMARE: Amaranthus retroflexus; test: Post-emergence herbicidal effect; details: dosage 320 g/ha
Method in brief: as §2

[13] = system: ECHCG: Echinochloa crus-galli; test: Post-emergence herbicidal effect; details: dosage 320 g/ha
Method in brief: as §2

SETVI: Setaria viridis [14] = test: Post-emergence herbicidal effect; details: dosage 320 g/ha
Method in brief: as §2

STEME: Stellaria media [15] = test: Post-emergence herbicidal effect; details: dosage 320 g/ha
Method in brief: as §2

VERPE: Veronica persica [16] = test: Post-emergence herbicidal effect; details: dosage 320 g/ha
Method in brief: as §2

VIOTR: Viola tricolor [17] = test: Post-emergence herbicidal effect; details: dosage 320 g/ha
Method in brief: as §2

SMILES | Herbicidal action against ABUTH [1] [%] | Herbicidal action against ALOMY [2] [%] | Herbicidal action against AMARE [3] [%] | Herbicidal action against AVEFA (AVEFA: Avena fatua) [%] | Herbicidal action against ECHCG [4] [%] | Herbicidal action against HORMU (HORMU: Hordeum murinum) [%] | Herbicidal action against LOLRI (LOLRI: Lolium rigidum) [%] | Herbicidal action against MATIN [5] [%] | Herbicidal action against PHBPU (PHBPU: Ipomoea purpurea) [%] | Herbicidal action against POLCO [6] [%] | Herbicidal action against SETVI (SETVI: Setaria viridis [7]) [%] | Herbicidal action against STEME (STEME: Stellaria media [8]) [%] | Herbicidal action against VERPE (VERPE: Veronica persica [9]) [%] | Herbicidal action against VIOTR (VIOTR: Viola tricolor [10]) [%] | Herbicidal action against ABUTH [11] [%] | Herbicidal action against AMARE [12] [%] | Herbicidal action against ECHCG [13] [%] | Herbicidal action against SETVI (SETVI: Setaria viridis [14]) [%] | Herbicidal action against STEME (STEME: Stellaria media [15]) [%] | Herbicidal action against VERPE (VERPE: Veronica persica [16]) [%] | further results
Cc1ccc2c(c1)[C@H](Nc1ncc(C(C)(C)O)cn1)CC2 [Example 1.5] | 100 | 100 | 100 | 100 | 100 | 100 | 100 | 100 | 100 | 100 | 100 | 100 | 100 | 100 | 100 | 100 | 100 | 90 | 100 | 90 | Herbicidal action against VIOTR (VIOTR: Viola tricolor [17]): 90%
CCC(O)(CC)c1cnc(N[C@H]2c3cc(C)ccc3C[C@@H]2C)nc1 [Example 1.10] | 100 | 100 | 100 | 100 | 100 | 100 | 100 | 100 | 80 | 100 | 100 | 100 | 100 | 100 | 90 | 90 | 100 | 80 | 100 | 90 | Herbicidal action against VIOTR (VIOTR: Viola tricolor [17]): 90%
Cc1ccc2c(c1)[C@H](Nc1ncc(C(C)(O)C(F)(F)F)cn1)[C@@H](C)C2 (stereo partly drawn) [Example 1.11] | 100 | 100 | 100 | 100 | 100 | 100 | 100 | 100 | 80 | 100 | 100 | 100 | 100 | 100 | 90 | 100 | 100 | 100 | 100 | 90 | Herbicidal action against VIOTR (VIOTR: Viola tricolor [17]): 90%
Cc1ccc2c(c1)[C@H](Nc1ncc(C(C)(C)O)c(C)n1)CC2 [Example 1.12] | 100 | 100 | 100 | 100 | 100 | 100 | 100 | 100 | 100 | 100 | 100 | 100 | 100 | 100 | 90 | 90 | 100 | 100 | 100 | 90 | Herbicidal action against VIOTR (VIOTR: Viola tricolor [17]): 80%
CCC(C)(O)c1cnc(N[C@H]2c3cc(C)ccc3C[C@@H]2C)nc1 (stereo partly drawn) [Example 1.14] | 100 | 100 | 100 | 100 | 100 | 100 | 100 | 100 | 100 | 100 | 100 | 100 | 100 | 100 | 90 | 100 | 100 | 90 | 100 | 90 | Herbicidal action against VIOTR (VIOTR: Viola tricolor [17]): 90%
C=CC(C)(O)c1cnc(N[C@H]2c3cc(C)ccc3C[C@@H]2C)nc1 (stereo partly drawn) [Example 1.15, 2-(2-{[(1R,2S)-2,6-Dimethyl-2,3-dihydro-1H-inden-1-yl]amino}pyrimidin-5-yl)but-3-en-2-ol] | 100 | 100 | 100 | 100 | 100 | 100 | 100 | 100 | 100 | 100 | 100 | 100 | 100 | 100 | 90 | 90 | 100 | 80 | 100 | 90 | Herbicidal action against VIOTR (VIOTR: Viola tricolor [17]): 80%
C#CC(C)(O)c1cnc(N[C@H]2c3cc(C)ccc3C[C@@H]2C)nc1 (stereo partly drawn) [Example 1.18] | 100 | 100 | 100 | 100 | 100 | 100 | 100 | 100 | 100 | 100 | 100 | 100 | 100 | 100 | 90 | 90 | 100 | 90 | 100 | 100 | Herbicidal action against VIOTR (VIOTR: Viola tricolor [17]): 90%
